Measured values as given in PubChem BioAssay (NCI).
Values joined by “and” are separate entries in the source; they are usually repeats but may differ in a detail not shown here. Equal entries are not always repeated.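 Growth conditions: 96-well plates. Treatment: test compound, 48 hours, 5 concentrations. Analysis: linear interpolation between bracketing concentrations; unreached endpoints set to highest concentration. GI50 is the concentration that inhibits growth by half. TGI denotes the concentration required for complete inhibition of growth.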

Tests used:
Assay in all cases: inhibition of tumour cell growth, NCI panel, 48 h
A549 NSCLC = test system: A549 NSCLC
HL-60(TB) leukemia = test system: HL-60(TB) leukemia
HS 578T breast = test system: HS 578T breast
IGROV1 ovarian = test system: IGROV1 ovarian
MDA-MB-435 = test system: MDA-MB-435
MOLT-4 leukemia = test system: MOLT-4 leukemia
NCI-H460 lung = test system: NCI-H460 lung
NCI-H522 lung = test system: NCI-H522 lung
NCI/ADR-RES ovarian = test system: NCI/ADR-RES ovarian
OVCAR-3 ovarian = test system: OVCAR-3 ovarian

SMILES | GI50 (A549 NSCLC) | TGI (A549 NSCLC) | GI50 (HL-60(TB) leukemia) | GI50 (HS 578T breast) | GI50 (IGROV1 ovarian) | TGI (IGROV1 ovarian) | GI50 (MDA-MB-435) | TGI (MDA-MB-435) | GI50 (MOLT-4 leukemia) | GI50 (NCI-H460 lung) | TGI (NCI-H460 lung) | GI50 (NCI-H522 lung) | TGI (NCI-H522 lung) | GI50 (NCI/ADR-RES ovarian) | TGI (NCI/ADR-RES ovarian) | GI50 (OVCAR-3 ovarian) | TGI (OVCAR-3 ovarian) | TGI (HL-60(TB) leukemia) [µM] | TGI (HS 578T breast) [µM] | TGI (MOLT-4 leukemia) [µM]
Cc1cc2nc3ccc(=[N+](C)C)cc-3sc2cc1N | 0.336 µM and 0.381 µM | 1.75 µM and 13.9 µM and 11.2 µM | 0.214 µM and 0.181 µM | 1.49 µM and 0.311 µM | 1.53 µM and 1.81 µM | 5.18 µM and 20.2 µM and 5.32 µM | 0.209 µM and 0.256 µM | 0.46 µM and 2.18 µM and 0.665 µM | 0.237 µM and 0.363 µM | 0.457 µM and 1.56 µM | 7.56 µM and 24.5 µM and 11.8 µM | 0.274 µM and 1.57 µM | 1.66 µM and 8.94 µM and 10.3 µM | 0.272 µM and 0.265 µM | 3.61 µM and 7.98 µM and 1.49 µM | 0.178 µM and 0.26 µM | 0.992 µM and 9.89 µM and 1.25 µM | – | – | –
N#CC1(Nc2ccc(-c3ccc(NC4(C#N)CCCC4)cc3)cc2)CCCC1 | – | > 100 µM | – | – | – | > 100 µM | – | > 100 µM | – | – | > 100 µM | – | > 100 µM | – | > 100 µM | – | > 100 µM | > 100 | > 100 | > 100
O=C1C=CC(=Nc2ccccc2)c2ccccc21 | – | 31 µM | – | – | – | 23.2 µM | – | 3.42 µM | – | – | 13.8 µM | – | 23.3 µM | – | 95.4 µM | – | 7.23 µM | 21.7 | 88.6 | 36.2
NS(=O)(=O)c1ccc(NCc2cnc3ccccc3n2)cc1 | – | > 100 µM | – | – | – | > 100 µM | – | > 100 µM | – | – | > 100 µM | – | > 100 µM | – | > 100 µM | – | > 100 µM | > 100 | > 100 | > 100
CC1=C(C(=O)Nc2ccc3[nH]ncc3c2)C(c2ccc(Cl)c(Cl)c2)CC(=O)N1 (configuration not stated) | > 25 µM | > 25 µM | > 25 µM | 4.29 µM | 12.8 µM | > 25 µM | > 25 µM | > 25 µM | > 22.9 µM | > 25 µM | > 25 µM | 19.5 µM | > 25 µM | > 25 µM | > 25 µM | > 25 µM | > 25 µM | > 25 | > 25 | > 25
COc1cc2oc(-c3ccc(O)cc3O)c(CC=C(C)C)c(=O)c2c(O)c1/C=C/C(C)C | – | 7.75 µM | – | – | – | 12 µM | – | 4.49 µM | – | – | 14.5 µM | – | 12.1 µM | – | 8.24 µM | – | 4.94 µM | 5.59 | 7.92 | 5.24
C=C1CC[C@@H]2[C@](C)(COC(C)=O)[C@H](OC(C)=O)CC[C@@]2(C)[C@@H]1CC(Nc1ccc(S(=O)(=O)Nc2cc(C)on2)cc1)C1=CCOC1=O (some centres not stated) | 4.75 µM | 15.4 µM | 1.39 µM | 3.92 µM | 2.36 µM | 6.51 µM | 1.74 µM | 4.37 µM | 2.12 µM | 2.35 µM | 5.7 µM | 1.04 µM | 2.42 µM | 2.41 µM | 12 µM | 1.66 µM | 3.09 µM | 3.69 | 26.7 | 6.39
CCOc1ccc2c(C)cc(=O)oc2c1 | – | > 100 µM | – | – | – | > 100 µM | – | > 100 µM | – | – | > 100 µM | – | > 100 µM | – | > 100 µM | – | > 100 µM | > 100 | > 100 | > 100
CCCCCCC/C=C/[C@H]1O[C@]2(O)C(=O)C=C3C[C@@H](O[C@@H]4O[C@H](CO)[C@@H](O)C(O)[C@@H]4O)C[C@@H]3[C@H]2C=C1C (some centres not stated) | 5.98 µM | 23.4 µM | 0.812 µM | 5.5 µM | 2.77 µM | 15.2 µM | 1.21 µM | 5.69 µM | 0.853 µM | 6.61 µM | 24.3 µM | 0.664 µM | 1.81 µM | 1.26 µM | 14 µM | 1.5 µM | 5.09 µM | 4.05 | 28.3 | 2.51
CN(C)CCC=C1c2ccccc2C(C)(C)c2ccccc21 | 15.8 µM | 32 µM | 12.4 µM | 9.03 µM | 15.9 µM | 31.7 µM | 4.56 µM | 19.5 µM | 7.18 µM | 9.23 µM | 21.3 µM | 17.9 µM | 37.1 µM | 17 µM | 34.1 µM | 15.2 µM | 28.5 µM | 27.1 | 29.8 | 23
C[N+](C)(CCCCCC[N+](C)(C)CCCN1C(=O)c2cc3ccccc3cc2C1=O)CCCN1C(=O)c2cc3ccccc3cc2C1=O | > 37.5 µM | > 37.5 µM | > 37.5 µM | > 37.5 µM | > 37.5 µM | > 37.5 µM | > 37.5 µM | > 37.5 µM | > 37.5 µM | > 37.5 µM | > 37.5 µM | > 37.5 µM | > 37.5 µM | > 37.5 µM | > 37.5 µM | > 37.5 µM | > 37.5 µM | > 37.5 | > 37.5 | > 37.5
O=c1c2cccc(F)c2sc2c(N3CCNCC3)nc3ccccc3c12 | 0.89 µM | 2.71 µM | 1.76 µM | 1.62 µM | 1.22 µM | 2.55 µM | 1.74 µM | 3.2 µM | 0.449 µM | 1.02 µM | 2.34 µM | 1.45 µM | 3.18 µM | 1.6 µM | 3.21 µM | 1.59 µM | 3.04 µM | 3.44 | 3.66 | 1.71
COc1cccc(-n2cc(-c3nc(Nc4cc(C)[nH]n4)c4ccccc4n3)nn2)c1 | 2.33 µM | 11.4 µM | 2.85 µM | 2.6 µM | 1.69 µM | 10.1 µM | 2.24 µM | 9.18 µM | 2.01 µM | 2.65 µM | 11.3 µM | 3.38 µM | 10.2 µM | 0.234 µM | 12.5 µM | 5.71 µM | 12.6 µM | 14.5 | 16.5 | 9.8
O=C(O)C1C2C=CC(C2)C1C(=O)O (configuration not stated) | > 100 µM | > 100 µM | > 100 µM | > 100 µM | > 100 µM | > 100 µM | > 100 µM | > 100 µM | > 100 µM | > 100 µM | > 100 µM | > 100 µM | > 100 µM | > 100 µM | > 100 µM | > 100 µM | > 100 µM | > 100 | > 100 | > 100
